This assay has as its target T1, Oxytocin receptor (Homo sapiens, UniProt P30559).
T1 sequence (P30559 whole entry): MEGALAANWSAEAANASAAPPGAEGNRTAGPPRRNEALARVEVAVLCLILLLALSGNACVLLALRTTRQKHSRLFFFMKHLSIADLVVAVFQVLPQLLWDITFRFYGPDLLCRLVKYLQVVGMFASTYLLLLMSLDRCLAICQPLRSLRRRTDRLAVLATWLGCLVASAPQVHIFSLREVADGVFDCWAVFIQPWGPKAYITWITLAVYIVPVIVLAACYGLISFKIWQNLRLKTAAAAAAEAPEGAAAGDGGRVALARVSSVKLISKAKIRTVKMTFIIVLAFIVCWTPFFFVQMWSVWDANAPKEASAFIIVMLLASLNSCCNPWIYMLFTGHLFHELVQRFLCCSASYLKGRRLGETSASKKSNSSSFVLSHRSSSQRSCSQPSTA
Kind of assay: Inhibitory concentration required for antagonist activity against oxytocin receptor. Type of assay: functional.

The molecule `CC(=O)CCCC(=O)NC1N=C(c2ccccc2)c2ccccc2N(CC(=O)N[C@@H](Cc2ccc(Cl)c(Cl)c2)C(N)=O)C1=O` (some centres not stated) returned an IC50 of 5 nM. `CC(=O)CCCC(=O)NC1N=C(c2ccccc2)c2ccccc2N(CC(=O)N[C@@H](Cc2cccs2)C(N)=O)C1=O` (some centres not stated) came in with an IC50 of 1 nM.

The values above are taken from ChEMBL document CHEMBL1134063, “Identification of a potent and selective oxytocin antagonist, from screening a fully encoded differential release combinatorial chemical library” (Bioorg Med Chem Lett, 2001).
